Source: ChEMBL document CHEMBL1145360, “Highly potent growth hormone secretagogues” (Bioorg Med Chem Lett, 2007)
pEC50: −log10 of the molar value.

Legend:
[1] = Stimulation of growth hormone in rat pituitary cell; type: functional, cell-based; conditions: pituitary gland cell
Canis familiaris [2] = test: Effect on growth hormone release in Beagle dog assessed as increase of GH level at 0.25 mg/kg, po relative to basal level; type: functional, Canis lupus familiaris
Canis familiaris [3] = test: Effect on growth hormone release in Beagle dog assessed as increase of GH level at 0.50 mg/kg, po relative to basal level; type: functional, Canis lupus familiaris; conditions: dose 0.5 mg/kg
Canis familiaris [4] = test: Effect on growth hormone release in Beagle dog assessed as increase of GH level at 0.01 mg/kg, iv relative to basal level; type: functional, Canis lupus familiaris
Canis familiaris [5] = test: Effect on growth hormone release in Beagle dog assessed as increase of GH level at 0.06 mg/kg, po relative to basal level; type: functional, Canis lupus familiaris

Row | Structure (SMILES) | pEC50 [1] | other results
1 | CC(C)(N)C(=O)N[C@H](CCCc1ccccc1)C(=O)N1CCC2(CC1)C[C@@H](C(=O)NCCNS(C)(=O)=O)c1ccccc12 | 9.68 | –
2 | CC(C)(N)C(=O)N[C@H](CCCc1ccccc1)C(=O)N1CCC2(CC1)C[C@@H](C(N)=O)c1ccccc12.Cl | 10.05 | Fold change (Canis familiaris [2]): 4
3 | CNC(=O)[C@@H]1CC2(CCN(C(=O)[C@@H](CCCc3ccccc3)NC(=O)C(C)(C)N)CC2)c2ccccc21 | 9.40 | –
4 | CC(C)(N)C(=O)N[C@H](CCCc1ccccc1)C(=O)N1CCC2(CC1)C[C@@H](C(=O)NCCO)c1ccccc12.Cl | 9.29 | Fold change (Canis familiaris [3]): 4
5 | C=CCNC(=O)[C@@H]1CC2(CCN(C(=O)[C@@H](CCCc3ccccc3)NC(=O)C(C)(C)N)CC2)c2ccccc21 | 9.85 | –
6 | CC(C)(N)C(=O)N[C@H](CCCc1ccccc1)C(=O)N1CCC2(CC1)C[C@H](C(N)=O)c1ccccc12 | 9.46 | –
7 | CC(C)(N)C(=O)N[C@H](CCCc1ccccc1)C(=O)N1CCC2(CC1)C[C@H](C(=O)NCCCCO)c1ccccc12 | 9.14 | –
8 | CC(C)(N)C(=O)N[C@H](CCCc1ccccc1)C(=O)N1CCC2(CC1)C[C@@H](C(=O)NCCCCO)c1ccccc12 | 9.36 | –
9 | CC(C)(N)C(=O)N[C@H](CCCc1ccccc1)C(=O)N1CCC2(CC1)C[C@H](C(=O)NCCCO)c1ccccc12 | 9.07 | –
10 | CCNC(=O)[C@@H]1CC2(CCN(C(=O)[C@@H](CCCc3ccccc3)NC(=O)C(C)(C)N)CC2)c2ccccc21 | 9.05 | –
11 | CC(C)(N)C(=O)N[C@H](CCCc1ccccc1)C(=O)N1CCC2(CC1)C[C@@H](C(=O)Nc1ccccc1)c1ccccc12 | 8.92 | –
12 | CC(C)NC(=O)[C@@H]1CC2(CCN(C(=O)[C@@H](CCCc3ccccc3)NC(=O)C(C)(C)N)CC2)c2ccccc21 | 9.52 | –
13 | CC(C)(N)C(=O)N[C@H](CCCc1ccccc1)C(=O)N1CCC2(CC1)C[C@@H](C(=O)NCCCO)c1ccccc12 | 9.39 | –
14 | CC(C)(N)C(=O)N[C@H](CCCc1ccccc1)C(=O)N1CCC2(CC1)C[C@H](C(=O)NCCO)c1ccccc12 | 9.35 | –
15 | CCNC(=O)[C@H]1CC2(CCN(C(=O)[C@@H](CCCc3ccccc3)NC(=O)C(C)(C)N)CC2)c2ccccc21 | 8.68 | –
16 | CCCNC(=O)[C@@H]1CC2(CCN(C(=O)[C@@H](CCCc3ccccc3)NC(=O)C(C)(C)N)CC2)c2ccccc21.Cl | 9.82 | Fold change (Canis familiaris [4]): 4; Fold change (Canis familiaris [5]): 4
17 | CNC(=O)[C@H]1CC2(CCN(C(=O)[C@@H](CCCc3ccccc3)NC(=O)C(C)(C)N)CC2)c2ccccc21 | 8.42 | –
18 | CC(C)(N)C(=O)N[C@H](COCc1ccccc1)C(=O)N1CCC2(CC1)CN(S(C)(=O)=O)c1ccccc12 [IBUTAMOREN] | 8.82 | –
